Measurements published in the NIST ThermoML archive (doi:10.1016/j.tca.2019.178375).
± gives the expanded uncertainty stated by the source.

Tests used:
[1] = Crystal; DTA
[2] = Molar enthalpy of transition or fusion; conditions: Crystal; DSC

With `Cl.c1ccc([C@H]2CN3CCSC3=N2)cc1` [(-)-Levamisole hydrochloride] the Normal melting temperature [1] was 227.00 ± 4 °C and the “Molar enthalpy of transition or fusion” value [2] was 7.63 ± 0.478 kcal/mol.
